Calls of active or inactive are those of the source. How the calls were made is not given here.
Tested on: CCRIS mutagenicity, Ames/micronucleus/aberration tests
Assay: CCRIS mutagenicity studies
[1] = Test System: AMES SALMONELLA TYPHIMURIUM, Strain/Indicator: TA98, Metabolic Activation: NONE, Method: PREINCUBATION
[2] = Test System: AMES SALMONELLA TYPHIMURIUM, Strain/Indicator: TA100, Metabolic Activation: NONE, Method: PREINCUBATION
[3] = Test System: AMES SALMONELLA TYPHIMURIUM, Strain/Indicator: TA1535, Metabolic Activation: NONE, Method: PREINCUBATION
[4] = Test System: AMES SALMONELLA TYPHIMURIUM, Strain/Indicator: TA1537, Metabolic Activation: NONE, Method: PREINCUBATION
[5] = Test System: AMES SALMONELLA TYPHIMURIUM, Strain/Indicator: TA98, Metabolic Activation: NONE, Method: STANDARD PLATE
[6] = Test System: AMES SALMONELLA TYPHIMURIUM, Strain/Indicator: TA100, Metabolic Activation: NONE, Method: STANDARD PLATE
[7] = Test System: AMES SALMONELLA TYPHIMURIUM, Strain/Indicator: TA100, Metabolic Activation: RAT, LIVER, S-9, AROCLOR 1254, Method: STANDARD PLATE
[8] = Test System: AMES SALMONELLA TYPHIMURIUM, Strain/Indicator: TA1535, Metabolic Activation: RAT, LIVER, S-9, AROCLOR 1254, Method: STANDARD PLATE
[9] = Test System: AMES SALMONELLA TYPHIMURIUM, Strain/Indicator: TA1537, Metabolic Activation: RAT, LIVER, S-9, AROCLOR 1254, Method: STANDARD PLATE
[10] = Test System: AMES SALMONELLA TYPHIMURIUM, Strain/Indicator: TA98, Metabolic Activation: RAT, LIVER, S-9, AROCLOR 1254, Method: STANDARD PLATE

Which mutagenic call (End Point: IN VITRO MICRONUCLEUS, Test System: HAMSTER V79 CELLS, Metabolic Activation: NONE) does the source give for `C[CH2][Hg][S]c1ccccc1C(=O)O` here?
Its mutagenic call is “active; positive”.

And the mutagenic call (Test System: AMES SALMONELLA TYPHIMURIUM, Strain/Indicator: TA98, Metabolic Activation: HAMSTER, LIVER, S-9, AROCLOR 1254 (10%), Method: PREINCUBATION)?
The mutagenic call was “inactive; negative”.

And the mutagenic call [1]?
The mutagenic call was “inactive; negative”.

What about the mutagenic call (Test System: AMES SALMONELLA TYPHIMURIUM, Strain/Indicator: TA98, Metabolic Activation: RAT, LIVER, S-9, AROCLOR 1254 (10%), Method: PREINCUBATION) of the same molecule?
The mutagenic call was “inactive; negative”.

What about the mutagenic call (Test System: AMES SALMONELLA TYPHIMURIUM, Strain/Indicator: TA100, Metabolic Activation: HAMSTER, LIVER, S-9, AROCLOR 1254 (10%), Method: PREINCUBATION) of the same molecule?
The mutagenic call was “inactive; negative”.

What about the mutagenic call [2] of the same molecule?
The mutagenic call was “inactive; negative”.

What about the mutagenic call (Test System: AMES SALMONELLA TYPHIMURIUM, Strain/Indicator: TA100, Metabolic Activation: RAT, LIVER, S-9, AROCLOR 1254 (10%), Method: PREINCUBATION) of the same molecule?
Its mutagenic call is “inactive; negative”.

And the mutagenic call (Test System: AMES SALMONELLA TYPHIMURIUM, Strain/Indicator: TA1535, Metabolic Activation: HAMSTER, LIVER, S-9, AROCLOR 1254 (10%), Method: PREINCUBATION)?
Its mutagenic call is “inactive; negative”.

And the mutagenic call [3]?
The mutagenic call was “inactive; negative”.

What about the mutagenic call (Test System: AMES SALMONELLA TYPHIMURIUM, Strain/Indicator: TA1535, Metabolic Activation: RAT, LIVER, S-9, AROCLOR 1254 (10%), Method: PREINCUBATION) of the same molecule?
Its mutagenic call is “inactive; negative”.

What about the mutagenic call (Test System: AMES SALMONELLA TYPHIMURIUM, Strain/Indicator: TA1537, Metabolic Activation: HAMSTER, LIVER, S-9, AROCLOR 1254 (10%), Method: PREINCUBATION) of the same molecule?
Its mutagenic call is “inactive; negative”.

What about the mutagenic call [4] of the same molecule?
Its mutagenic call is “inactive; negative”.

What about the mutagenic call (Test System: AMES SALMONELLA TYPHIMURIUM, Strain/Indicator: TA1537, Metabolic Activation: RAT, LIVER, S-9, AROCLOR 1254 (10%), Method: PREINCUBATION) of the same molecule?
Its mutagenic call is “inactive; negative”.

Which mutagenic call [5] does the source give for `COC(=O)[C@@H]1O[C@@H]1c1ccccc1` here?
The mutagenic call was “inactive; negative”.

And the mutagenic call [6]?
Its mutagenic call is “active; positive”.

What about the mutagenic call [7] of the same molecule?
The mutagenic call was “inactive; negative”.

And the mutagenic call [8]?
Its mutagenic call is “inactive; negative”.

And the mutagenic call [9]?
Its mutagenic call is “inactive; negative”.

What about the mutagenic call (Test System: AMES SALMONELLA TYPHIMURIUM, Strain/Indicator: TA1538, Metabolic Activation: RAT, LIVER, S-9, AROCLOR 1254, Method: STANDARD PLATE) of the same molecule?
Its mutagenic call is “inactive; negative”.

`Oc1c2ccccc2c2ccc3cccc4ccc1c2c43` was tested. Which mutagenic call (Test System: CHINESE HAMSTER V-79, Strain/Indicator: V-79/8-AZAGUANINE, Metabolic Activation: NONE, Method: STANDARD PLATE) did it give?
The mutagenic call was “active; positive”.

With `Cn1c(N)nc2cc(O)ccc21` as the molecule, how does the mutagenic call (Test System: AMES SALMONELLA TYPHIMURIUM, Strain/Indicator: TA98, Metabolic Activation: RAT, LIVER, S-9, AROCLOR 1254, Method: PREINCUBATION) read?
The mutagenic call was “inactive; negative”.

What about the mutagenic call (Test System: AMES SALMONELLA TYPHIMURIUM, Strain/Indicator: TA100, Metabolic Activation: RAT, LIVER, S-9, AROCLOR 1254, Method: PREINCUBATION) of the same molecule?
The mutagenic call was “inactive; negative”.

`CN1CC[C@]23c4c5ccc(O)c4O[C@H]2[C@@H](O)C=C[C@H]3[C@H]1C5` was tested. Which mutagenic call [10] did it give?
Its mutagenic call is “inactive; negative”.

For `CCCCS(=O)(=O)n1ncc(Cl)c(Cl)c1=O`, which mutagenic call [5] is on record?
The mutagenic call was “inactive; negative”.

What about the mutagenic call [10] of the same molecule?
Its mutagenic call is “inactive; negative”.

What about the mutagenic call [6] of the same molecule?
Its mutagenic call is “active; positive”.

What about the mutagenic call [7] of the same molecule?
The mutagenic call was “active; positive”.

And the mutagenic call (Test System: AMES SALMONELLA TYPHIMURIUM, Strain/Indicator: TA1535, Metabolic Activation: NONE, Method: STANDARD PLATE)?
Its mutagenic call is “inactive; negative”.

What about the mutagenic call [8] of the same molecule?
Its mutagenic call is “active; positive”.

And the mutagenic call (Test System: AMES SALMONELLA TYPHIMURIUM, Strain/Indicator: TA1537, Metabolic Activation: NONE, Method: STANDARD PLATE)?
Its mutagenic call is “inactive; negative”.

What about the mutagenic call [9] of the same molecule?
Its mutagenic call is “inactive; negative”.

Which mutagenic call [1] does the source give for `CCCCCCCCCCCCc1ccccc1` here?
The mutagenic call was “inactive; negative”.

What about the mutagenic call (Test System: AMES SALMONELLA TYPHIMURIUM, Strain/Indicator: TA98, Metabolic Activation: RAT, LIVER, S-9, KC 500, Method: PREINCUBATION) of the same molecule?
The mutagenic call was “inactive; negative”.

And the mutagenic call [2]?
The mutagenic call was “inactive; negative”.

And the mutagenic call (Test System: AMES SALMONELLA TYPHIMURIUM, Strain/Indicator: TA100, Metabolic Activation: RAT, LIVER, S-9, KC 500, Method: PREINCUBATION)?
Its mutagenic call is “inactive; negative”.

And the mutagenic call [3]?
Its mutagenic call is “inactive; negative”.

What about the mutagenic call (Test System: AMES SALMONELLA TYPHIMURIUM, Strain/Indicator: TA1535, Metabolic Activation: RAT, LIVER, S-9, KC 500, Method: PREINCUBATION) of the same molecule?
The mutagenic call was “inactive; negative”.

What about the mutagenic call [4] of the same molecule?
The mutagenic call was “inactive; negative”.

And the mutagenic call (Test System: AMES SALMONELLA TYPHIMURIUM, Strain/Indicator: TA1537, Metabolic Activation: RAT, LIVER, S-9, KC 500, Method: PREINCUBATION)?
Its mutagenic call is “inactive; negative”.

And the mutagenic call (Test System: AMES SALMONELLA TYPHIMURIUM, Strain/Indicator: TA1538, Metabolic Activation: NONE, Method: PREINCUBATION)?
The mutagenic call was “inactive; negative”.

And the mutagenic call (Test System: AMES SALMONELLA TYPHIMURIUM, Strain/Indicator: TA1538, Metabolic Activation: RAT, LIVER, S-9, KC 500, Method: PREINCUBATION)?
Its mutagenic call is “inactive; negative”.

What about the mutagenic call (Test System: E. COLI, Strain/Indicator: WP2 UVRA, Metabolic Activation: NONE, Method: PREINCUBATION) of the same molecule?
Its mutagenic call is “inactive; negative”.

What about the mutagenic call (Test System: E. COLI, Strain/Indicator: WP2 UVRA, Metabolic Activation: RAT, LIVER, S-9, KC 500, Method: PREINCUBATION) of the same molecule?
Its mutagenic call is “inactive; negative”.

From PubChem BioAssay AID1259407 (Chemical Carcinogenesis Research Information System (CCRIS), 2018)
